Measurements as given in patent EP0563127B1, “IMPROVED TREATMENT METHOD FOR CANCER” (priority 1990, dated 1992).
Where two headings read alike, the source gives them in different places.

Columns and labels:
bone marrow progenitors = details: for CFU-C/10⁴ cells (No. of bone marrow colonies) / R.C.S. (Relative Cell Survival): 5FU lethal dose (7.5mg) alone; for R.C.S. (Relative Cell Survival) / R.C.S.: saline = 1.0
Procedure: The DPPE and saline were administered 90 minutes prior to the 5FU. Bone marrow cell counts were made at 24 hours and 48 hours post administration.
Experiments paralleling those described above with 5FU were carried out employing a lethal dose of adriamycin (20mg/kg).

C-3 fibrosarcoma cells = assay: In vivo augmentation of adriamycin anti-tumor activity in a murine sarcoma model; parameters: species or system C3H mice; details: intraperitoneally day 1, followed 60 days
Procedure: C-3 fibrosarcoma cells (3 x 10⁵) were injected into the left gluteal region of C3H mice on day 0. On day 1, the mice were provided with treatment by a combination of DPPE and adriamycin, administered intraperitoneally. The DPPE was administered 60 minutes prior to administration of the adriamycin. Mice also were administered with saline, DPPE alone and adriamycin alone.
Animals in the experiments (n=12) were followed for 60 days. At the end of the experimental period, those animals free of palpable tumors were considered cured.

B16 melanoma cells = assay: In vivo augmentation of BCNU anti-tumor activity in a B16 melanoma lung metastasis model; parameters: species or system C57Bl mice; details: for (% control) of lung metastases / Numbers of lung metastases / Median Survival: intraperitoneal day 1; for (% control) of lung metastases / Numbers of lung metastases: lungs at day 14; for Numbers of lung metastases: saline 241; for Median Survival: saline 19; for Size of lung metastases: Macro means visually determined, Micro means microscopically only
Procedure: 5 x 10⁴ B16 melanoma cells were injected intravenously into the tail vein of C57Bl mice at day 0. The mice were treated with either saline, 32mg/kg of DPPE, 1mg of BCNU or a combination of 32mg/kg of DPPE and 1mg of BCNU, by intraperitoneal injection on day 1. The DPPE was administered 60 minutes before the BCNU.
In each group, six of the twelve animals were sacrificed at day 14 and lungs were removed for determination of metastasis. The remaining six animals were followed to death. The numbers and size of the lung metastases were determined by visual or microscope count.

DBA/2 mice = assay: In vivo host cytoprotection from a lethal dose of adriamycin; details: DPPE 2 mg/kg 1 hour (n=12) or 15 minutes (n=6) prior to 15 mg/kg of adriamycin, after 30 days
Procedure: Saline or DPPE (2 mg/kg) were administered to DBA/2 mice 1 hour (n=12) or 15 minutes (n=6) prior to administration of 15 mg/kg of adriamycin. The number of survivors after 30 days was determined.

[1] = system: Spleen cells from BALB/C mice; assay: Thymidine incorporation into DNA of Concanavalin A-stimulated lymphocytes; assay type: cell-based
Procedure: Spleen cells from BALB/C mice were stimulated with Concanavalin A (5 µg/ml) for thymidine incorporation. The cells then were treated with varying does of DPPE and the level of thymidine incorporated was determined. The results were plotted graphically and appear as Figure 1.
The experiment was repeated using 2.5 µg/ml of Concanavalin A in place of 5 µg/ml and 2% fetal calf serum in place of 10%. The results obtained are illustrated in Figure 2.

[2] = system: virally-infected non-senescing transformed spleen-derived lymphocytes (S-10); assay: Thymidine incorporation and cytotoxicity in virally-infected transformed lymphocytes; assay type: cell-based, BALB/C origin
Procedure: The experiment of Example VI was repeated employing virally-infected non-senescing transformed spleen-derived lymphocytes (S-10) also of BALB/C origin with 0.25 nM of ³H-thymidine added. The results were plotted graphically and appear as Figures 3 and 4 respectively. As may be seen therein, in contrast to Figures 1 and 2, 25 µM of DPPE caused approximately 50% cytotoxicity to the virally-infected cells. When adjusted for cell number, thymidine incorporation increased at cytotoxic concentrations of DPPE (10 to 25 µM).

[3] = system: human breast cancer cell (MCF-7); assay: Thymidine incorporation and cytotoxicity in breast cancer cells; assay type: cell-based; details: 0.25 nM of thymidine, Figure 5
Procedure: The experiment was again repeated using human breast cancer cell (MCF-7) with 0.25 nM of thymidine added. The results were plotted graphically and appear as Figure 5.

[4] = system: patients with advanced cancer; assay: Clinical study in patients with advanced cancer
Procedure: A clinical study was carried out with 14 patients with advanced cancer. • (a) DPPE alone was administered to patients to determine a safe dose range in humans.

prostaglandin (PG)I₂ = assay: Prostaglandin level in the gut after DPPE treatment; assay type: in vivo
Text: In addition, the antagonism results in an increase in the levels of prostaglandins (natural substances which are known to protect tissues from various injurious agents) in the tissue. For example, DPPE treatment results in an increase by 500% in prostaglandin (PG)I₂, a protective prostaglandin, in the gut.

certain B cells = assay: Interleukin-2 stimulated antibody formation in B cells; assay type: cell-based
Text: As with bone marrow cells, the treatment of normal proliferating lymphocytes (immune cells), according to the invention, results in a dose-dependent blocking of DNA synthesis and a shut-down of these cells without causing cytotoxicity. The antagonist has an effect on both T-lymphocytes and B-lymphocytes in the immune system. […] DPPE also blocks the stimulation of antibody formation by the mediator interleukin-2 in certain B cells, resulting is a decrease in antibody formation.

ulcer formation = details: in the presence of noxious agents, such as alcohol and cysteamine; see US-A-4,829,068; cited from earlier work
malignant cells = details: as described in US-A- No. 4,803,227; cited from earlier work
B16f10 melanoma cells = assay: In vivo augmentation of daunorubicin anti-tumor activity in a B16 melanoma lung metastasis model; parameters: species or system mice; details: Daunorubicin 12.5 mg/kg alone, 24 hours after cells
Procedure: The procedure of Example III was repeated employing daunorubicin in place of BCNV. Groups of six mice were injected with B16f10 melanoma cells and 24 hours later received saline, 4 mg/kg of DPPE alone, a non-lethal dose of daunorubicin alone (12.5 mg/kg) or DPPE (4, 25 or 50 mg/kg) one hour prior to daunorubicin (12.5 mg/kg). All animals were followed to death or for 60-days post injection, and sacrificed for lung metastases.

[5] = administered five hours or more prior to the chemotherapeutic agent; cited from earlier work
[6] = Adriamycin lethal dose (20mg/kg) alone, 24h
[7] = Adriamycin lethal dose (20mg/kg) alone, 48h
[8] = 25 µM DPPE, Concanavalin A 5 µg/ml, 10% fetal calf serum, Figure 1
[9] = DPPE 0.2 mg/kg daily, patients treated with Adriamycin (60 mg/m²)

For `O=c1[nH]cc(F)c(=O)[nH]1` [5FU, 5-fluorouracil], the “CFU-C/10⁴ cells (No. of bone marrow colonies)” value (bone marrow progenitors; 24h) was 0.2 CFU-C/10⁴ cells, the “R.C.S. (Relative Cell Survival)” value (bone marrow progenitors; 24h) was 0.006 and the “CFU-C/10⁴ cells (No. of bone marrow colonies)” value (bone marrow progenitors; 48h) was 0.09 CFU-C/10⁴ cells. The “R.C.S. (Relative Cell Survival)” value (bone marrow progenitors; 48h) was 0.002.

For `COc1cccc2c1C(=O)c1c(O)c3c(c(O)c1C2=O)C[C@@](O)(C(=O)CO)C[C@@H]3O[C@H]1C[C@H](N)[C@H](O)[C@H](C)O1` [Adriamycin, doxorubicin], the “Number of Mice Tumor-Free (n=12)” value (C-3 fibrosarcoma cells; Adriamycin 2mg/kg alone) was 0, the CFU-C/10⁴ cells (bone marrow progenitors; [6]) was 1.8 CFU-C/10⁴ cells and the R.C.S. (bone marrow progenitors; [6]) was 0.04. The CFU-C/10⁴ cells (bone marrow progenitors; [7]) was 0.65 CFU-C/10⁴ cells and the R.C.S. (bone marrow progenitors; [7]) was 0.006.

In the case of `O=NN(CCCl)C(=O)NCCCl` [BCNU, reference compound], the “(% control) of lung metastases” value (B16 melanoma cells; BCNU 1mg alone) was 60%, the “Numbers of lung metastases” value (B16 melanoma cells; BCNU 1mg alone) was 144 and the “Median Survival” value (B16 melanoma cells; BCNU 1mg alone) was 24 days. For the same compound, the “Size of lung metastases” value (B16 melanoma cells; BCNU 1mg alone) was “All Macro”.

For `CCN(CC)CCOc1ccc(Cc2ccccc2)cc1` [DPPE, N,N-diethyl-2-[4-(phenylmethyl)-phenoxy]ethanamine], the “Number of Mice Tumor-Free (n=12)” value (C-3 fibrosarcoma cells; DPPE 50mg/kg alone) was 0, the CFU-C/10⁴ cells (bone marrow progenitors; DPPE 4mg/kg alone, 24h) was 42.3 CFU-C/10⁴ cells and the R.C.S. (bone marrow progenitors; DPPE 4mg/kg alone, 24h) was 0.97. For the same compound, the CFU-C/10⁴ cells (bone marrow progenitors; DPPE 4mg/kg alone, 48h) was 41.3 CFU-C/10⁴ cells, the R.C.S. (bone marrow progenitors; DPPE 4mg/kg alone, 48h) was 0.97 and the “(% control) of lung metastases” value (B16 melanoma cells; DPPE 32mg/kg alone) was 91%. For the same compound, the “Numbers of lung metastases” value (B16 melanoma cells; DPPE 32mg/kg alone) was 219, the “Median Survival” value (B16 melanoma cells; DPPE 32mg/kg alone) was 21 days and the “Size of lung metastases” value (B16 melanoma cells; DPPE 32mg/kg alone) was “All Macro”. The “Number of Survivors” value (DBA/2 mice; saline group 4/12) was 13/18, the “Number of Survivors (percent)” value (DBA/2 mice; saline group 33%) was 72% and the cell survival [1, 8] was “does not adversely affect”. For the same compound, the “thymidine incorporation into DNA” value [1, 8] was “completely blocks”, the “concentrations of DPPE which inhibited DNA synthesis” value ([1]; Concanavalin A 2.5 µg/ml, 2% fetal calf serum, Figure 2) was 5 µm and the cytotoxicity ([1]; at 5 µm DPPE, Concanavalin A 2.5 µg/ml, 2% fetal calf serum, Figure 2) was “no significant cytotoxicity”. The “proliferation of T-lymphocytes” value ([1]; in the presence of Concanavalin A) was “completely antagonize”, the “cytotoxicity to the virally-infected cells” value ([2]; 25 µM of DPPE, S-10 cells, Figures 3 and 4) was “approximately 50%” and the “thymidine incorporation adjusted for cell number” value ([2]; at cytotoxic concentrations of DPPE (10 to 25 µM), 0.25 nM ³H-thymidine) was “increased”. The “cytotoxicity and thymidine incorporation compared with S-10 cells” value [3] was “Analogous results”, the mouth ulceration ([4]; 72-hour infusion of low dose DPPE, one patient) was “prevented” and the “acute and delayed gastrointestinal side effects of Adriamycin” value ([4]; DPPE 0.2 mg/kg daily as a 72-hour infusion, Adriamycin 60 mg/m², four patients, two treatments each) was “block completely”. For the same compound, the anti-emetic effect ([4]; DPPE 0.2 mg/kg daily, 24-hour infusion, first 24 to 48 hours following Adriamycin, delayed nausea, vomiting and/or anorexia at 72 or 96 hours in many patients) was “effective anti-emetic therapy”, the “amelioration of nausea, vomiting, anorexia and stomatitis” value [4, 9] was “over 90%” and the “patients in whom nausea, vomiting, anorexia and stomatitis were prevented or ameliorated” value [4, 9] was 6/6. For the same compound, the toxicity ([4]; DPPE alone, 6 mg/kg administered IV over 2 hours) was “significant toxicity was absent”, the highest non-toxic dosage ([4]; DPPE alone, given intravenously over a one-hour period) was 4 mg/kg and the “effect on platelets, hemoglobin or biochemistry” value ([4]; human, in vivo) was “No significant effect”. The CNS toxicity ([4]; human, in vivo, 6 mg/kg) was “dose limiting”, the “drop in body core temperature” value ([4]; human, in vivo, 6 mg/kg) was 1-2 °C and the “threshold for CNS toxicity” value ([4]; human, in vivo, 1 h) was 240 mg/M². The “changes in biochemistries or blood counts” value ([4]; human, in vivo, iv, 0.2 mg/kg) was “not to cause any significant changes”, the clinical side effects ([4]; human, in vivo, iv, 0.2 mg/kg) was “entirely without clinical side effects” and the “antiemetic effect against Adriamycin” value ([4]; single iv doses of DPPE (1, 2, 4 mg/kg) given over 1 hour) was “significantly antiemetic”. For the same compound, the “increase in prostaglandin (PG)I₂ in the gut” value (prostaglandin (PG)I₂) was 500%, the “stimulation of antibody formation by interleukin-2” value (certain B cells) was “blocks” and the “threshold for CNS toxicity” value (mice) was 240 mg/M². For the same compound, the ulcer formation (ulcer formation) was “completely block” and the “effect on malignant cells in vitro” value (malignant cells) was “damages and/or kills”.

With `COc1cccc2c1C(=O)c1c(O)c3c(c(O)c1C2=O)C[C@@](O)(C(C)=O)C[C@@H]3O[C@H]1C[C@H](N)[C@H](O)[C@H](C)O1` [Daunorubicin, daunorubicin] the “No. Cures (n=6)” value (B16f10 melanoma cells; followed 60 days) was 0 and the “Median Survival” value (B16f10 melanoma cells; followed to death or 60 days, saline 17) was 25 days.

In the case of `N[C@H](CO)Cc1c[nH]cn1` [L-histidinol], the effective doses [5] is given as “approximately 1000 mg/kg of tissue”.
